Assay results taken from EP0175180A1, “Histargin-related compounds, a process for their preparation and their use as medicaments” (MICROBIAL CHEMISTRY RESEARCH FOUNDATION, priority 1984, dated 1986).

Tests used:
rats = assay: Acute toxicity test by intraperitoneal administration; assay type: in vivo
Excerpt: Each of the compounds in accordance with the present invention has low toxicity and can safely be used as a medicine. The results of an acute toxicity test conducted by intraperitoneal administration of rats with compound Nos. la to 5a are summarized in Table 5.

carboxypeptidase B = molecular target: T1, carboxypeptidase B (Sus scrofa, UniProt P09955); assay: Inhibition of the action of carboxypeptidase B; assay type: biochemical; settings: carboxypeptidase B purified from swine pancreas, 37°C, 30 minutes, pH 8.0; read-out: CP-B inhibition IC50 (converted)
T1 construct: carboxypeptidase B purified from swine pancreas; purchased C; F. Boehringer & Soehne GmbH, Mannheim; host or cells: swine pancreas
T1 sequence (P09955 111-416): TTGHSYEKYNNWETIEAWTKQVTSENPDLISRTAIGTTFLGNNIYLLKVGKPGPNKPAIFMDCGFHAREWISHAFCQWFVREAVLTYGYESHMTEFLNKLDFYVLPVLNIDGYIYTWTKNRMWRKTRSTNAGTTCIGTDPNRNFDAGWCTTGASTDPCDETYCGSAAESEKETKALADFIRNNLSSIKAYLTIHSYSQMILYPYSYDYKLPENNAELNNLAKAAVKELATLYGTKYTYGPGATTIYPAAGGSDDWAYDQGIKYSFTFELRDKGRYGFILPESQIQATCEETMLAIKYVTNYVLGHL
Description: The inhibition of the action of carboxypeptidase B was determined by an improved version of the method for determination of the activity of angiotensin converting enzyme described in M. Hayakari et al., Analytical Biochemistry, 84, 361 - 369 (1978). The method proceeds as follows: A mixture of 0.05 mℓ of 0.05 M fibril-L-lysine (prepared by Tanpakushitsu Kenkyu Shoreikai) with 0.25 mℓ of 0.05 M Tris-HCℓ buffer solution (pH 8.0) and 0.15 mℓ of a solution containing a test compound was heated at 37°C for 3 minutes. To the heated solution, 0.05 mℓ of an aqueous solution containing 1 ug/mℓ of carboxypeptidase B purified from swine pancreas (product of C. F. Boehringer G Sohne GmbH, Mannheim) and 1 mg/mℓ of bovine albumin was added, and the mixture was subjected to reaction at 37°C for 30 minutes. The reaction was quenched by adding 0.03 mℓ of 1 N caustic soda. Fifteen minutes later, 2 mℓ of 0.05 M sodium phosphate buffer solution (pH 7.2) was added to the reaction mixture, and color reaction was performed by addition of 2 mℓ of 1% cyanuric chloride in methyl cellosolve. The mixture was left at room temperature for 15 minutes and the absorbance (a) at 382 nm was measured. The absorbance (b) of a control containing no test compound was also measured by repeating the same procedure. Blank tests were also conducted to determine the corresponding absorbances (a') and (b').
In each blank teat, the color reaction was performed by adding the enzyme solution after caustic soda so that no enzymatic reaction would take place. The percent inhibition of the action of carboxypeptidase B was calculated by the formula: [formula]

carboxypeptidase A = molecular target: T2, carboxypeptidase A (Bos taurus, UniProt P00730); assay: Inhibition of the action of carboxypeptidase A; assay type: biochemical; settings: carboxypeptidase A purified from bovine pancreas, 37°C, 30 minutes, pH 7.5; read-out: CP-A inhibition IC50 (converted)
T2 construct: carboxypeptidase A purified from bovine pancreas; purchased Sigma Chemical Co; host or cells: bovine pancreas
T2 sequence (P00730 111-419): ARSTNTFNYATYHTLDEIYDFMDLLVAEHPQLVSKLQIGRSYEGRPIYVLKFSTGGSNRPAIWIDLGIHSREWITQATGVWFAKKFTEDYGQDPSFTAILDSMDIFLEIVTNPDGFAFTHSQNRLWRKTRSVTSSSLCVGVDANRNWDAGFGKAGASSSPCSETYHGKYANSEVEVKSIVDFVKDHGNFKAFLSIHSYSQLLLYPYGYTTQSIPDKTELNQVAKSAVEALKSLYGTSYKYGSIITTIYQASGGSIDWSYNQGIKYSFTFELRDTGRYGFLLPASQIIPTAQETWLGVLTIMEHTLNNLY
Description: (2) Inhibition of the action of carboxypeptidase A The inhibition of the action of carboxypeptidase A was determined by the method described in T. Tanaka et al., The Journal of Antibiotics, 37, 682 - 684 (1984). The method proceeds as follows: A mixture of 0.05 mℓ of 0.01 M fibril-L-phenylalanine (product of Sigma Chemical Co.) with 0.25 mℓ of 0.05 M Tris-HCℓ buffer solution (pH 7.5) containing 0.9 M NaCℓ. and 0.15 mℓ of a solution containing a teat compound was heated at 37°C for 3 minutes. To the heated solution, 0.05 mℓ of a diluted aqueous solution of carboxypeptidase A purified from bovine pancreas (product of Sigma Chemical Co.) which also contained 1 mg/mℓ of purified bovine albumin was added and the mixture was enbjected to reaction at 37°C for 30 minutes. The reaction was quenched by adding 0.03 mℓ of 1 M caustic soda. Fifteen minutes later, 2 mℓ of 0.06 M sodium phosphate buffer solution (pH 7.2) was added to the reaction mixture, and color reaction was performed by addition of 2 mℓ of 1% cyanuric chloride in methyl cellosolve. The mixture was left at room temperature for 15 minutes and the absorbance (a) at 382 nm was measured. The absorbance (b) of a control containing no test compound was also measured by repeating the same procedure. Blank tests were also conducted to determine the corresponding absorbances (a') and (b'). In each blank test, the color reaction was performed by adding the enzyme solution after caustic soda so that no enzymatic reaction would take place. The percent inhibition of the action of carboxypeptidase A was calculated by the formula: [formula]

[1] = molecular target: T3, angiotensin converting enzyme (Bos taurus, UniProt P12820); assay: Inhibition of the action of angiotensin converting enzyme; assay type: biochemical; settings: enzyme partially purified from a bovine lung, 37°C, 30 minutes; read-out: IC50 (50% inhibition concentration) (converted)
T3 construct: angiotensin converting enzyme partially purified from a bovine lung; from tissue; host or cells: bovine lung
T3 sequence (P12820 29-1306): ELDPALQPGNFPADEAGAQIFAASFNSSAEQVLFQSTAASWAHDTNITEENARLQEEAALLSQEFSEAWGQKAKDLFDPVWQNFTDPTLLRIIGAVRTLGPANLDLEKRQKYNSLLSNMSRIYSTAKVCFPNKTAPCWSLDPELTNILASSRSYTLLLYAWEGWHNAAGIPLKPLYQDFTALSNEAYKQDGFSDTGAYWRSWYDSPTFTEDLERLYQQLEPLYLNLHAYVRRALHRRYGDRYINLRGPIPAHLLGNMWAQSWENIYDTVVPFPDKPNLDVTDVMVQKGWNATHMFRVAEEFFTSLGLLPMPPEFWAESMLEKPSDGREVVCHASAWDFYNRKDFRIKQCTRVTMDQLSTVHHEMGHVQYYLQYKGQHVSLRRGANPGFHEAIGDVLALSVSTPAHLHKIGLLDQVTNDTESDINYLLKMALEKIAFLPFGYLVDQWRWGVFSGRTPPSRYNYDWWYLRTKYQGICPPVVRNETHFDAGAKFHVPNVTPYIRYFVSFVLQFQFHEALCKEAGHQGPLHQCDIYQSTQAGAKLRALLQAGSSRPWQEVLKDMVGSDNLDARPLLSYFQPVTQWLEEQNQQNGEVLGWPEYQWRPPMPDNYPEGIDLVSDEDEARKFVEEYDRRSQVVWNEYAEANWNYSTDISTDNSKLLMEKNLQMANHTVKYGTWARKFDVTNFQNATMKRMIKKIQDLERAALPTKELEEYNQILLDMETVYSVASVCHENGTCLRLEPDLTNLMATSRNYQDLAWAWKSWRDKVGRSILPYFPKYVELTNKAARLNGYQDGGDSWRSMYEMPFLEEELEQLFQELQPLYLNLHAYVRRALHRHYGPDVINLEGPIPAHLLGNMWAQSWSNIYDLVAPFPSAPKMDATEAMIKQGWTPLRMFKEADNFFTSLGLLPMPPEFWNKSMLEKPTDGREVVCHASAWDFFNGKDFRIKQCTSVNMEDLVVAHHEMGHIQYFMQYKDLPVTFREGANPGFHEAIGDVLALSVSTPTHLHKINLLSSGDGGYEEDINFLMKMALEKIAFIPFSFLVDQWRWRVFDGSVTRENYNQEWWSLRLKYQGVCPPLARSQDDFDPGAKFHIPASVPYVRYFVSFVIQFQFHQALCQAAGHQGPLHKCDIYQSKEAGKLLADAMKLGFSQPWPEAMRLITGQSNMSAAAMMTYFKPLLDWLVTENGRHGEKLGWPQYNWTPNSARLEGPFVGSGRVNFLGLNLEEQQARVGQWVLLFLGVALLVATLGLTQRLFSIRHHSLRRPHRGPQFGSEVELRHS
Description: The inhibition of the action of angiotensin converting enzyme was determined by an inproved version of the method for determination of the activity of angiotensin converting enzyme described in M. Hayakari et al., Analytical Biochemistry, 84, 361 - 369 (1978). The method proceeds as follows: Substrate fibril-L-histidyl-L-leucine was dissolved at a concentration of 5 mg/mt in Tris-HCℓ buffer solution (0.5 M, pH 8.0) containing 0.3 M NaCℓ. A mixture of this solution (0.05 mℓ) and 0.40 mℓ of a solution containing a test compound was heated at 37°C for 3 minutes. To the heated solution, 0.05 ml of a solution containing angiotensin converting enzyme partially purified from a bovine lung was added, and the mixture was subjected to reaction at 37°C for 30 minutes. The reaction was quenched by adding 0.03 mℓ of 1 N caustic soda. […] The mixture was left at room temperature for 15 minutes and the absorbance (a) at 382 nm was measured. The absorbance (b) of a control containing no test compound was also measured by repeating the same procedure. Blank tests were also conducted to determine the corresponding absorbances (a') and (b'). […] The percent inhibition of the action of angiotensin converting enzyme was calculated by the formula: [formula]

[2] = intraperitoneal administration, rats, dose stated in each result

Structure (SMILES) | Test results (acute toxicity) (rats; [2]) | IC50 (carboxypeptidase B) | IC50 (carboxypeptidase A) | Test results (acute toxicity) (rats; rat, in vivo, ip) | IC50 [1]
O=C(O)[C@H](Cc1ccccc1)NCCN[C@@H](Cc1c[nH]cn1)C(=O)O [2a, L-His-C2-L-Phe] | No toxicity observed upon administration of 100 mg/kg. | 185 µM | 24.3 µM | – | –
CCOC(=O)[C@H](Cc1ccccc1)NCCN[C@@H](Cc1c[nH]cn1)C(=O)O [7a, L-His-C2-L-Phe-OEt] | – | > 534 µM | 390 µM | – | –
O=C(O)C[C@H](NCCN[C@@H](Cc1c[nH]cn1)C(=O)O)C(=O)O [5a, L-His-C2-L-Asp] | – | > 636 µM | > 636 µM | No toxicity observed upon administration of 400 mg/kg. | 1.59 µM
NCCCC[C@H](NCCN[C@@H](Cc1c[nH]cn1)C(=O)O)C(=O)O [3a, L-His-C2-L-Lys] | No toxicity observed upon administration of 400 mg/kg. | > 611 µM | > 611 µM | – | –
O=C(O)[C@H](Cc1c[nH]cn1)NCCN[C@@H](Cc1c[nH]cn1)C(=O)O [1a, L-His-C2-L-His] | – | 178 µM | > 595 µM | No toxicity observed upon administration of 400 mg/kg. | 2.08 µM
NCCC[C@H](NCCN[C@@H](Cc1c[nH]cn1)C(=O)O)C(=O)O [6a, L-His-C2-L-Orn] | – | 357 µM | > 638 µM | – | –
O=C(O)[C@H](Cc1c[nH]cn1)NCCN1CCC[C@H]1C(=O)O [4a, L-His-C2-L-Pro] | No toxicity observed upon administration of 400 mg/kg. | > 675 µM | > 675 µM | – | –
